In ChEMBL document CHEMBL5154644, “Design, Synthesis, and Structure-Activity Relationship Optimization of Pyrazolopyrimidine Amide Inhibitors of Phosphoinositide 3-Kinase γ (PI3Kγ)” (J Med Chem, 2022):
Calls of active or inactive are those of the source. The rule behind the calls is not given here.

Key:
[1] = Clearance in Beagle dog at 1 mg/kg, iv; format: ADME, organism-based, Canis lupus familiaris; details: in vivo
[2] = Volume of distribution at steady state in cynomolgus monkey at 1 mg/kg, iv; format: ADME, organism-based, Macaca fascicularis; details: in vivo
[3] = MRT (infinity) in cynomolgus monkey at 1 mg/kg, iv; format: ADME, organism-based, Macaca fascicularis; details: in vivo
[4] = AUC(0 to infinity) in Sprague-Dawley rat at 1 mg/kg, iv measured up to 8 hrs by LC-MS/MS analysis; format: ADME, organism-based; design: dose 1 mg/kg, time < 8 hrs, route iv; details: in vivo
[5] = MRT (infinity) in Beagle dog at 1 mg/kg, iv; format: ADME, organism-based, Canis lupus familiaris; details: in vivo
[6] = Clearance in Sprague-Dawley rat at 1 mg/kg, iv measured up to 8 hrs by LC-MS/MS analysis; format: ADME, organism-based; details: in vivo
[7] = Apparent permeability of the compound across apical to basolateral side in human Caco-2 cells; format: ADME, cell-based
Homo sapiens = organism: Homo sapiens; test: Selectivity ratio of IC50 for inhibition of PI3Kalpha (unknown origin) to IC50 for inhibition of PI3Kgamma (unknown origin)
[8] = Metabolic stability in human hepatocytes assessed as intrinsic clearance per 10^6 cells at 0.5 uM by LC-MS/MS analysis; format: ADME, cell-based, Hepatocyte; details: read-out: CLH
[9] = AUC(0 to infinity) in Beagle dog at 1 mg/kg, iv; format: ADME, organism-based, Canis lupus familiaris; design: time infinity, dose 1 mg/kg, route iv; details: in vivo
[10] = Volume of distribution at steady state in Sprague-Dawley rat at 1 mg/kg, iv measured up to 8 hrs by LC-MS/MS analysis; format: ADME, organism-based; details: in vivo
[11] = Hepatic clearance in Sprague-Dawley rat by LC-MS/MS analysis; format: ADME; details: in vivo
[12] = AUC(0 to infinity) in C57BL/6 mouse at 0.5 mg/kg, iv; format: ADME, organism-based; design: time infinity, dose 0.5 mg/kg, route iv; details: in vivo
[13] = Oral bioavailability in Sprague-Dawley rat at 10 mg/kg measured up to 24 hrs by LC-MS/MS analysis; format: ADME, organism-based; details: in vivo
hERG = hERG (Homo sapiens, UniProt Q12809); test: Inhibition of human ERG at 10 uM by patch clamp assay relative to control; format: toxicity
[14] = Half life in cynomolgus monkey at 1 mg/kg, iv; format: ADME, organism-based, Macaca fascicularis; details: in vivo
[15] = Clearance in C57BL/6 mouse at 0.5 mg/kg, iv; format: ADME, organism-based; details: in vivo
CYP3A4 = CYP3A4 (Homo sapiens, UniProt P08684); test: in vitro; details: human liver microsomes, probe midazolam
Description: Time dependent inhibition of CYP3A4 in human liver microsomes at 10 uM using midazolam as substrate preincubated for 30 mins in presence of NADPH by LC/MS/MS analysis relative to control

[16] = Plasma protein binding in Sprague-Dawley rat plasma at 1 mg/kg, iv measured up to 8 hrs by LC-MS/MS analysis; format: ADME, organism-based; details: read-out: PPB (converted)
[17] = Half life in Sprague-Dawley rat at 1 mg/kg, iv measured up to 8 hrs by LC-MS/MS analysis; format: ADME, organism-based; details: in vivo
[18] = AUC(0 to infinity) in cynomolgus monkey at 1 mg/kg, iv; format: ADME, organism-based, Macaca fascicularis; design: time infinity, dose 1 mg/kg, route iv; details: in vivo
[19] = Plasma protein binding in cynomolgus monkey at 1 mg/kg, iv; format: ADME, organism-based, Macaca fascicularis; details: read-out: PPB (converted)
[20] = Volume of distribution at steady state in Beagle dog at 1 mg/kg, iv; format: ADME, organism-based, Canis lupus familiaris; details: in vivo
[21] = target: T1, Phosphatidylinositol 4,5-bisphosphate 3-kinase catalytic subunit gamma isoform (Homo sapiens, UniProt P48736); test: Inhibition of PI3Kgamma (unknown origin) using PIP2 as substrate preincubated for 1 hr followed by substrate addition and measured after 60 mins in presence of ATP by ADP-glo assay
Target sequence in this assay (P48736 whole entry, canonical isoform): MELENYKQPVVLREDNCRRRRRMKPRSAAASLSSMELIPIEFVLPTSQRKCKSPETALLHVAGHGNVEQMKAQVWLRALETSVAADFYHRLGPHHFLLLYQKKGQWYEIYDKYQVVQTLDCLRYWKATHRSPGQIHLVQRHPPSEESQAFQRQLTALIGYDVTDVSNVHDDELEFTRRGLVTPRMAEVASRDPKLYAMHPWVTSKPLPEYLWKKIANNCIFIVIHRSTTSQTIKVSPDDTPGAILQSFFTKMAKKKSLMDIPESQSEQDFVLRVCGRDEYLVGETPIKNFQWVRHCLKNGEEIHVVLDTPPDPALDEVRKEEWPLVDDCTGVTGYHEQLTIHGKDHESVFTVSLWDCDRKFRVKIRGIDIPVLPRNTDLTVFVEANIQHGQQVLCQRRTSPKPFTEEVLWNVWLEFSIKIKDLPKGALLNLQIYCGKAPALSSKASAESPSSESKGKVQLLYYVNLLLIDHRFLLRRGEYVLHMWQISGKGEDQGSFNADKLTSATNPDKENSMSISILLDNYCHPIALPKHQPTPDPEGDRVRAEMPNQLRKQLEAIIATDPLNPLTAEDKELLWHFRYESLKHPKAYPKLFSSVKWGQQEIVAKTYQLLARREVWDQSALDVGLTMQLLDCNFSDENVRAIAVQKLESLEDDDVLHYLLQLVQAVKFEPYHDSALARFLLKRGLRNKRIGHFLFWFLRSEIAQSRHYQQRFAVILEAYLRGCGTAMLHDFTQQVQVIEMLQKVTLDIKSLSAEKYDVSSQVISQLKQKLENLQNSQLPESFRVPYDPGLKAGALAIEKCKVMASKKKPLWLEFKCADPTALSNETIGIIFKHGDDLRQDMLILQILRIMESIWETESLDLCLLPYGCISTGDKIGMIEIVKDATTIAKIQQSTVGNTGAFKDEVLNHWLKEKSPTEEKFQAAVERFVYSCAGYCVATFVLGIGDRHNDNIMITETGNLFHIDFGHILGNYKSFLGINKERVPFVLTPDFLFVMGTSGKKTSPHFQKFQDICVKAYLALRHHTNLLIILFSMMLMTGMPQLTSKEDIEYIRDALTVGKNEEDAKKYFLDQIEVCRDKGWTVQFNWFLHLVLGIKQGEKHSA

[22] = target: T1, Phosphatidylinositol 4,5-bisphosphate 3-kinase catalytic subunit gamma isoform; test: Inhibition of P13Kgamma in LPS and IFNgamma stimulated human M1 macrophage assessed as increase in IL12B expression at 1 uM pretreated for 1 hr followed by LPS and IFNgamma stimulation by qRT-PCR analysis; format: cell-based
Target sequence in this assay (P48736 whole entry, looked up, canonical isoform): as the sequence (P48736 whole entry, canonical isoform) above

[23] = target: Phosphatidylinositol 4,5-bisphosphate 3-kinase catalytic subunit alpha isoform (Homo sapiens, UniProt P42336); test: Inhibition of PI3Kalpha (unknown origin) using PIP2 as substrate preincubated for 1 hr followed by substrate addition and measured after 60 mins in presence of ATP by ADP-glo assay
[24] = Half life in C57BL/6 mouse at 0.5 mg/kg, iv; format: ADME, organism-based; details: in vivo
[25] = target: T1, Phosphatidylinositol 4,5-bisphosphate 3-kinase catalytic subunit gamma isoform; test: Inhibition of P13Kgamma in LPS and IFNgamma stimulated human M1 macrophage assessed as increase in IL6 expression at 1 uM pretreated for 1 hr followed by LPS and IFNgamma stimulation by qRT-PCR analysis; format: cell-based
Target sequence in this assay (P48736 whole entry, looked up, canonical isoform): as the sequence (P48736 whole entry, canonical isoform) above

[26] = target: Phosphatidylinositol 4,5-bisphosphate 3-kinase catalytic subunit beta isoform (Homo sapiens, UniProt P42338); test: Inhibition of PI3Kbeta (unknown origin) using PIP2 as substrate preincubated for 1 hr followed by substrate addition and measured after 60 mins in presence of ATP by ADP-glo assay
[27] = target: T1, Phosphatidylinositol 4,5-bisphosphate 3-kinase catalytic subunit gamma isoform; test: Inhibition of P13Kgamma in LPS and IFNgamma stimulated human M1 macrophage assessed as increase in IL1B expression at 1 uM pretreated for 1 hr followed by LPS and IFNgamma stimulation by qRT-PCR analysis; format: cell-based
Target sequence in this assay (P48736 whole entry, looked up, canonical isoform): as the sequence (P48736 whole entry, canonical isoform) above

[28] = Metabolic stability in rat hepatocyte assessed as intrinsic clearance per 10^8 cells at 0.5 uM by LC-MS/MS analysis; format: ADME, cell-based; details: hepatocytes
[29] = Volume of distribution at steady state in C57BL/6 mouse at 0.5 mg/kg, iv; format: ADME, organism-based; details: in vivo
[30] = Clearance in cynomolgus monkey at 1 mg/kg, iv; format: ADME, organism-based, Macaca fascicularis; details: in vivo
[31] = AUC(0 to infinity) in Sprague-Dawley rat at 10 mg/kg, po measured up to 24 hrs by LC-MS/MS analysis analysis; format: ADME, organism-based; design: dose 10 mg/kg, time < 24 hrs, route po; details: in vivo

Sequence of Phosphatidylinositol 4,5-bisphosphate 3-kinase catalytic subunit beta isoform (P42338 whole entry, canonical isoform): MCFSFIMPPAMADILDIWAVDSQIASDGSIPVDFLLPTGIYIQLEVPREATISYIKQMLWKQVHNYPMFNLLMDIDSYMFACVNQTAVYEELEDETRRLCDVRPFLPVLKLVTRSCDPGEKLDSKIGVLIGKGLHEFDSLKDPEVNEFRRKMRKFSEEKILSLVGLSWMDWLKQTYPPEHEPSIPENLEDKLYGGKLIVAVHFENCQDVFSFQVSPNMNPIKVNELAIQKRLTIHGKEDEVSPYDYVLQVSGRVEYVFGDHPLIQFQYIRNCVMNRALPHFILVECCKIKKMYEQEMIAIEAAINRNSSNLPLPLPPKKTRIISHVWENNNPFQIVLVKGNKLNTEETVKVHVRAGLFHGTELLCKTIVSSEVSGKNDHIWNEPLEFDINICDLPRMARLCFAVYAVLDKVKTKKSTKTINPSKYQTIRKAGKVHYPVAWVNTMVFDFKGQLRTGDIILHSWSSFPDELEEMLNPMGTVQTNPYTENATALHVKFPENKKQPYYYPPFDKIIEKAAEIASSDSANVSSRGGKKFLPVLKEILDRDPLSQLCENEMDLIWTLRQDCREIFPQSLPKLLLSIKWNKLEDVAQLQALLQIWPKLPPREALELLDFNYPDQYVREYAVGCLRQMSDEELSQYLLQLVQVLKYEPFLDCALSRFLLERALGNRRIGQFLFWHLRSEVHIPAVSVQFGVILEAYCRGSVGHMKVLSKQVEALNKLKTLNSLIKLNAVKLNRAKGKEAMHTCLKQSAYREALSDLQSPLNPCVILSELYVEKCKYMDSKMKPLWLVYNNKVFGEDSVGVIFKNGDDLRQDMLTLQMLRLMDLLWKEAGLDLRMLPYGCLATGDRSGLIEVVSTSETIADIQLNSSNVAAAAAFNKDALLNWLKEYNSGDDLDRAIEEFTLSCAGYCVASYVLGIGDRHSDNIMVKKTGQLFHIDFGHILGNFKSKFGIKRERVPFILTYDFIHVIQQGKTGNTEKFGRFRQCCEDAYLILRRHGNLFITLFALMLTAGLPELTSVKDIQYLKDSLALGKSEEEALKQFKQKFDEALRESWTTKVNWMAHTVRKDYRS
Sequence of CYP3A4 (P08684 whole entry): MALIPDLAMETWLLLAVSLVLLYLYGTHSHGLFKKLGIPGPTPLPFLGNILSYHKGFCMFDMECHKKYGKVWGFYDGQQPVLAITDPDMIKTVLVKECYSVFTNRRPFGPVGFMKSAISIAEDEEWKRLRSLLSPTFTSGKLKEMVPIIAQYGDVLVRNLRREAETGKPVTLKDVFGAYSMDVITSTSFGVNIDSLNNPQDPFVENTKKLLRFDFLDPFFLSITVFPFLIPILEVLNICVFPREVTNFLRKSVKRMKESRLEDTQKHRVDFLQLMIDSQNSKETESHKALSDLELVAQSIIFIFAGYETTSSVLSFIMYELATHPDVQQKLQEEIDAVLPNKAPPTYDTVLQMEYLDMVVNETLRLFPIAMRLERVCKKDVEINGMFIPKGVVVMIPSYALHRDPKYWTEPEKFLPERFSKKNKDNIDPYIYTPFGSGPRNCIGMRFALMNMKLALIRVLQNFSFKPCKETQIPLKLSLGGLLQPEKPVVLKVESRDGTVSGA
Sequence of Phosphatidylinositol 4,5-bisphosphate 3-kinase catalytic subunit alpha isoform (P42336 whole entry, canonical isoform): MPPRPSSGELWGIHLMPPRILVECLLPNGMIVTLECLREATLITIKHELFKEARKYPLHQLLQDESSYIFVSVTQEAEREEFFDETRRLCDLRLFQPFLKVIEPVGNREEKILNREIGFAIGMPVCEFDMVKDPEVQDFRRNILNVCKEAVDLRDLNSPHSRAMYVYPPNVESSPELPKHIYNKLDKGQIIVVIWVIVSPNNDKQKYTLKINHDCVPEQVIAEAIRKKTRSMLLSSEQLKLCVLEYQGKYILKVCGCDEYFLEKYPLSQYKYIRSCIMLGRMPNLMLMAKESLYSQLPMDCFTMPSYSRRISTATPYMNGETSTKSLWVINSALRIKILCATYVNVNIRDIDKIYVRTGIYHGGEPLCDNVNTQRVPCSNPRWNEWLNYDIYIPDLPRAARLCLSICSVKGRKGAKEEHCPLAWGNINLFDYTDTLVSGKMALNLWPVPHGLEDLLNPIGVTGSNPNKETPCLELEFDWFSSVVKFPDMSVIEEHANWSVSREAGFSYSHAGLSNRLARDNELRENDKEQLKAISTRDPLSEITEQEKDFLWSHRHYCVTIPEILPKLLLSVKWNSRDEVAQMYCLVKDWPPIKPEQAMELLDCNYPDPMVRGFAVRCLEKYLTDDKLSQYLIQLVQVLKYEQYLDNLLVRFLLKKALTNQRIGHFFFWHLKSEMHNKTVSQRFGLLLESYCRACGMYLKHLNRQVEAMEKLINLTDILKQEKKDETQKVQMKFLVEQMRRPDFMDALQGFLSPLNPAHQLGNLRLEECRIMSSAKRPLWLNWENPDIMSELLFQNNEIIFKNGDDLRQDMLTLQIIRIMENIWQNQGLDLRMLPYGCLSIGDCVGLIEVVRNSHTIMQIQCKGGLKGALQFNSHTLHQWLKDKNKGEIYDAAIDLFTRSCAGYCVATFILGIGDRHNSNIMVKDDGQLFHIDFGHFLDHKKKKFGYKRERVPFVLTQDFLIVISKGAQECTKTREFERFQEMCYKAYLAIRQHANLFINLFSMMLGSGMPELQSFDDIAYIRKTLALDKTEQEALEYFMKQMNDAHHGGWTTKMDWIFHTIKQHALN
Sequence of hERG (Q12809 whole entry): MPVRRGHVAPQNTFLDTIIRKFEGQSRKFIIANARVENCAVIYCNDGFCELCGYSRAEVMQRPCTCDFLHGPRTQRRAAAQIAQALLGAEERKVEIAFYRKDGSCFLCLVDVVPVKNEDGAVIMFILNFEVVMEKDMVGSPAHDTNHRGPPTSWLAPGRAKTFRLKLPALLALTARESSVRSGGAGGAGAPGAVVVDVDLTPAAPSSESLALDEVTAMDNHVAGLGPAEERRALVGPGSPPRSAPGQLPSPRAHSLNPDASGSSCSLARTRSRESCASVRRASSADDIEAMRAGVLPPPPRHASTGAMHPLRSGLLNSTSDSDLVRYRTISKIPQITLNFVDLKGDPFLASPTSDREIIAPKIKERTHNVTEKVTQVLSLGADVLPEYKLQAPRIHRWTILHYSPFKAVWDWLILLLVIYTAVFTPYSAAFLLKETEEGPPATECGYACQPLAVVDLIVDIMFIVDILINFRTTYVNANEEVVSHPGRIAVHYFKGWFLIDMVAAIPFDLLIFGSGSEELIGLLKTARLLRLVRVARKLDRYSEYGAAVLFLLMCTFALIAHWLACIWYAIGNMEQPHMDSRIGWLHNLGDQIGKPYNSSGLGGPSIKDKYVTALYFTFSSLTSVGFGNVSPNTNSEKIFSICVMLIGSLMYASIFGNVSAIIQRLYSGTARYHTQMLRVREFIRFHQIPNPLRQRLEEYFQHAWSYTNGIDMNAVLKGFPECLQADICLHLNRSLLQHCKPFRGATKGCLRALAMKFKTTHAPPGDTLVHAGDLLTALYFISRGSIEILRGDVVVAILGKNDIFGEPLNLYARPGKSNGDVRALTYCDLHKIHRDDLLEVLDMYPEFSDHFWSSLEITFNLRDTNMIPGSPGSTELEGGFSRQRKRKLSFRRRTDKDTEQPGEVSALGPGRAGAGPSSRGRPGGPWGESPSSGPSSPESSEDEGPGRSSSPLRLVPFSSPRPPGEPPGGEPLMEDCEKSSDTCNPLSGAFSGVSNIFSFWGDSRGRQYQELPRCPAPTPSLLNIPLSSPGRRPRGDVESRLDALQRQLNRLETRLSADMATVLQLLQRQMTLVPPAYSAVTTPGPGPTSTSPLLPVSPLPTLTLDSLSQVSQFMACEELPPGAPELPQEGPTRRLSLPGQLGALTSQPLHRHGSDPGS

Compound	clearance [1] [mL/min/kg]	Vdss [2] [L/kg]	MRT inf [3] [h]	AUC(0-inf) [4] [ng·h/mL]	MRT inf [5] [h]	clearance [6] [mL/min/kg]	Papp A→B [7] [×10⁻⁶ cm/s]	Ratio IC50 (Homo sapiens)	hepatocyte CLint at 0.5 µM [8] [µL/min/1e6 cells]	AUC(0-inf) [9] [ng·h/mL]	Vdss [10] [L/kg]	CLH [11] [mL/min/kg]	AUC(0-inf) [12] [ng·h/mL]	bioavailability [13] [%]	inhibition at 10 µM (hERG) [%]	half-life [14] [h]	clearance [15] [mL/min/kg]	inhibition at 30 min, 10 µM (CYP3A4) [%]	fraction unbound at 8 h [16]	half-life [17] [h]	also measured
C[C@@H](C1CC1)N1Cc2cc(-c3ccn4nc(N)c(C(=O)N[C@H]5CC[C@@](C)(O)CC5)c4n3)cc(OC(F)F)c2C1=O	9.67	3.69	3.41	630	5.92	27.5	16.8	657	< 1.2	1800	3.03	25	565	102	17	3.18	14.7	10	0.021	1.89	AUC(0-inf) [18]: 925 ng·h/mL; fraction unbound [19]: 0.034; Vdss [20]: 3.55 L/kg; IC50 [21]: 1.9 nM; inhibition [22]: Active; IC50 [23]: 1250 nM; half-life [24]: 4.98 h; inhibition [25]: Active; IC50 [26]: 9210 nM; inhibition [27]: Active; hepatocyte intrinsic clearance [28]: 2.62 µL/min; Vdss [29]: 1.66 L/kg; clearance [30]: 18 mL/min/kg; AUC(0-inf) [31]: 8160 ng·h/mL
C[C@@H](C1CC1)N1Cc2cc(-c3ccn4nc(N)c(C(=O)N[C@H]5CC[C@@](C)(O)CC5)c4n3)cc(OC(F)(F)F)c2C1=O	14	3.77	3.58	797	3.85	20.8	4.7	946	< 1.2	1240	2.91	30	488	4	5	3.65	17.2	10	0.023	2.17	AUC(0-inf) [18]: 949 ng·h/mL; fraction unbound [19]: 0.05; Vdss [20]: 3.24 L/kg; IC50 [21]: 2.8 nM; inhibition [22]: Active; IC50 [23]: 2650 nM; half-life [24]: 3.93 h; inhibition [25]: Active; IC50 [26]: 29300 nM; inhibition [27]: Active; hepatocyte intrinsic clearance [28]: 6.07 µL/min; Vdss [29]: 2.09 L/kg; clearance [30]: 17.7 mL/min/kg; AUC(0-inf) [31]: 249 ng·h/mL
